Data: patent US20090196862A1, “High dosage Vitamin D” (priority 2008, published 2009)

Tests used:
[1] = Clinical observation of lipids, inflammatory levels and blood pressure on oral D3; assay type: in vivo, human; conditions: oral administration
Text: The present inventor observed lipid effects (reduced triglycerides, a raise in the levels of HDL [“good cholesterol”] and a reduction in LDL particles [“bad cholesterol”]) from oral supplementation of an oil-based preparation of D3.

atherosclerotic plaque = assay: Coronary / atherosclerotic plaque by heart CT scan score in patients; assay type: in vivo, human; conditions: for effect on plaques (heart CT scan score): patients with coronary plaques
Procedure: In clinical practice with regard to plaque formation, the present inventor observed that blood serum levels of D3 of about 50 ng/mL provide sufficient effect. Below 50 ng/mL, there is an incremental effect, with a very small effect as low as 20 ng/mL, but a significant effect emerging at 40-45 ng/mL. By 50 ng/mL, there is a significant and often sufficient effect. About 50 ng/mL of 25-hydroxy-vitamin D [25(OH)D] in blood serum provides a reasonably strong effect against plaque buildup.

[2] = literature report; cited from earlier work

Row | Structure (SMILES) | blood pressure [1] | inflammatory levels [1] | blood serum level of D3 at which a significant effect emerges (plaque formation) (atherosclerotic plaque; clinical practice) | blood serum level of D3 providing sufficient effect on plaque formation (atherosclerotic plaque; clinical practice) | blood serum level of D3 with a very small effect (plaque formation) (atherosclerotic plaque; clinical practice) | effect on plaques (heart CT scan score) (atherosclerotic plaque; listed as oral D3) | effect on plaques (heart CT scan score) (atherosclerotic plaque; listed as vitamin D) | conversion of D2 to D3 in humans [2]
1 | C=C1CC[C@H](O)C/C1=C/C=C1\CCC[C@]2(C)[C@@H]([C@H](C)CCCC(C)C)CC[C@@H]12 [D3, cholecalciferol] | reductions | reductions | 40 to 45 ng/mL | about 50 ng/mL | 20 ng/mL | positive effect | decreased evidence of plaques | –
2 | C=C1CC[C@H](O)C/C1=C/C=C1\CCC[C@]2(C)[C@@H]([C@H](C)/C=C/[C@H](C)C(C)C)CC[C@@H]12 [D2, ergocalciferol] | – | – | – | – | – | – | – | ≤ 70%
